# What was measured:
# Type in all cases: in vivo
# [1] = system: Myzus persicae aphids; test: Leaf dip assay (based on IRAC susceptibility test method 019), mortality assessment; conditions: unformulated, mortality assessed at 72, 96 and 120 hours, compared to negative control vehicle and Spirotetramat (Figures 6-8)
# Method: The assay was carried out based on IRAC susceptibility test method 019 (https://irac-online.org/methods/aphids-adultnymphs/).
# Fill a small 4 cm wide 3 cm high dish with a 1% agar treatment solution of the active chemical or control (ensuring 1 cm gap between the agar and the lid) and leave to set. Dip a 2.5 cm leaf disc into 3 ml of treatment solution allowing the treatment to coat the leaf. Leave the disc to dry for 1 hour and place onto the set agar. Place insects (Myzus persicae aphids) onto each of the leaf discs. Each unit is sealed with a close-fitting, ventilated lid. Place the agar dishes in a small plastic tray lined with moist tissue paper and ensure the water trays in the bottom of the incubator are filled with clean water and place within the incubator. An assessment of mortality is made at 72, 96 and 120 hours. Leaf dip assays were performed with SB-P-66, and compared to a negative control vehicle and a current commercial insecticide Spirotetramat. The activity of SB-P-66 is shown in Figures 6 and 7; SB-P-66 has good activity whilst being eco-friendly and targeted to specific pests unlike broad spectrum chemical insecticides such as Spirotetramat.
# [2] = system: Myzus persicae; test: Field trials; conditions: unformulated; acting comparably to commercial insecticides
# Method: (§1) Field trials for peptide SB-P-66, unformulated, against various insects were conducted by third-party organisations PGRO and AgriScience.
# [3] = system: Bumblebee; test: Bee oral toxicity test (adapted from OECD Test No. 247: Bumblebee, Acute Oral Toxicity Test); conditions: % survival after 96 hours of application, compared with sucrose or vehicle and with Imidacloprid (Figure 9)
# Method: Bee oral testing protocol was carried out adapted from OECD Test No. 247: Bumblebee, Acute Oral Toxicity Test. The toxicity of SB-P-66 was compared with a negative control of sucrose or vehicle, and with a current commercial insecticide Imidacloprid.
# [4] = system: Aphis gossypii; test: Field trials, naturally infested plants (AgriScience, cotton and melon); conditions: unformulated, acting comparably to commercial insecticides (Figures 11, 12)
# Method: (§2) A) and 16 days after second application (App.
# as §1
# [5] = system: Amrasca biguttula (leaf hopper); test: Field trials, naturally infested plants; conditions: unformulated; over time; acting comparably to commercial insecticides (Figure 14)
# Method: as §2, §1
# [6] = system: Aphis fabae; test: Field trials, naturally infested plants (PGRO, vining peas); conditions: unformulated, acting comparably to commercial insecticides (Figures 10, 13)
# Method: as §2, §1
substance,measurement,setting,value
"H-PAFSSWG-NH2 [SB-P-66, [Hy]-PAFSSWG-[NH2]]",activity against Myzus persicae (mortality),[1],good activity
same,efficacy in field trials against Myzus persicae,[2],good efficacy
same,bee oral toxicity (% survival),[3],far lower toxicity
same,efficacy in field trials against Aphis gossypii,[4],good efficacy
same,efficacy in field trials against Amrasca biguttula,[5],good efficacy
same,efficacy in field trials against Aphis fabae,[6],good efficacy

# From patent EP4810509A1, “INSECT NEUROPEPTIDES 7” (Solasta Bio Limited, priority 2022, dated 2024)
